In patent US10144715B2, “Piperazine derivatives as liver X receptor modulators” (priority 2014, dated 2018):
Read-outs that look alike come from different tables or passages of the source.

Experiments:
LXR α LBD protein [1] = target: T1, LXR α LBD protein (Homo sapiens (Human), UniProt Q13133); experiment: Human LXRα coactivator recruitment FRET assay, agonist mode; type: biochemical
Procedure, shortened: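 LXRα- or LXRβ-LBD at 10 nM (2×) mixed with compound in DMSO, then fluorescein-SRC2-3 peptide 200 nM and Tb-anti-GST antibody 20 nM (4×) added; 2 h at rt. Time-resolved FRET read, 100 µs delay, 200 µs window; EC50 from four-parameter fit of percent control.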

LXR β LBD protein [2] = target: T2, LXR β LBD protein (Homo sapiens (Human), UniProt P55055); experiment: biochemical; type: binding; conditions: read-out: LXRβ Binding Ki
Target sequence in this assay (P55055 222-460 limits assumed): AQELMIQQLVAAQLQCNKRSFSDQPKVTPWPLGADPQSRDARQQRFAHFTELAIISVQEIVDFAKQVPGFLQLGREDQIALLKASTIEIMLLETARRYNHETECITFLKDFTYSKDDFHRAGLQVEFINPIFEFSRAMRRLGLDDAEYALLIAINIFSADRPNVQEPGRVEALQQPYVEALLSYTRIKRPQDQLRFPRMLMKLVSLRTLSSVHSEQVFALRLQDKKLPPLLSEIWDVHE

[3] = target: Gal4 DNA binding domain fused to the LBD of LXRβ in HEK293 cells (Homo sapiens (Human), UniProt P55055); experiment: cell-based
Chain of Gal4 DNA binding domain fused to the LBD of LXRβ in HEK293 cells (P55055 222-460 limits assumed): as above

LXR β LBD protein [4] = target: T2, LXR β LBD protein; experiment: biochemical; type: biochemical
Experimental: Two μL of the DMSO solutions were transferred to the plate and 38 μL of 10 nM LXRα-LBD or LXRβ-LBD (2×) were added immediately to the wells. The plate was shaken for 5 min at rt on an orbital micro shaker (DPC MicroMix® 5), after which 40 μL of 200 nM fluorescein-SRC2-3 peptide and 20 nM Terbium-anti-GST-antibody (Cat# PV3550, Life Technologies, Grand Island, N.Y.) solution (4×) were added to all. The plate was sealed and shaken for 2 min at rt, and incubated at rt for 2 h without agitation. […] The delay and window times were set at 100 and 200 microseconds, respectively. […] The percent control vs. compound concentration data were fit into a four-parameter model, and EC50 values were calculated from the fit as the concentrations corresponding to the inflection points on the concentration-response curves.
Target sequence in this assay (P55055 222-460): as the sequence (P55055 222-460 limits assumed) above

[5] = target: Gal4 DNA binding domain fused to the LBD of LXRα in HEK293 cells (Homo sapiens (Human), UniProt Q13133); experiment: LXR luciferase transcriptional reporter gene assay, agonist mode, LXRα; type: cell-based
Chain of Gal4 DNA binding domain fused to the LBD of LXRα in HEK293 cells (Q13133 209-447): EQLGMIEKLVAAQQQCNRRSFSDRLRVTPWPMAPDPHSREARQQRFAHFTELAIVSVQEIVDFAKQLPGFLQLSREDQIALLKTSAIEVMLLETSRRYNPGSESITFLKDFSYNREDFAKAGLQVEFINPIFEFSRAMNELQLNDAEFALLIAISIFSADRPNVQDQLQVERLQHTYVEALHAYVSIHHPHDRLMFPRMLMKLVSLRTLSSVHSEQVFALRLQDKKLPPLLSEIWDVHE

LXR α LBD protein [6] = target: T1, LXR α LBD protein; experiment: LXR α radioligand binding assay (SPA, competition with [3H]TO901317); conditions: read-out: LXRα Binding Ki
[7] = agonist mode, read-out: FRET LXRβ EC50
[8] = agonist mode, read-out: Cell LXRβ EC50
[9] = Biological Test Example 3, agonist mode
[10] = agonist mode, read-out: Cell LXRα EC50
[11] = Biological Test Example 2, agonist mode
[12] = Biological Test Example 2, agonist mode, read-out: Cell LXRα EC50

T1 sequence (Q13133 209-447): as above

Compound	EC50 (LXR α LBD protein [1]; agonist mode) [µM]	FRET LXRα efficacy (LXR α LBD protein [1]; agonist mode) [%]	EC50 [3] [µM]	FRET LXRβ efficacy (LXR β LBD protein [4]; agonist mode)	EC50 (LXR β LBD protein [4]; [7]) [µM]	Cell LXRα efficacy [5]	EC50 ([5]; read-out: Cell LXRα EC50) [µM]	EC50 [3, 8] [µM]	EC50 (LXR β LBD protein [4]; read-out: FRET LXRβ EC50) [µM]	further results
CC(C)[C@@H]1CN(c2ccc(F)c(S(C)(=O)=O)c2)CCN1C(=O)OC(C)(C)C [2-1, tert-butyl (R)-4-(4-fluoro-3-(methylsulfonyl)phenyl)-2-isopropylpiperazine-1-carboxylate]	0.901	48	0.684	74%	0.056	5252 (61) %	5.25			Ki (LXR β LBD protein [2]): 0.209 µM; Cell LXRβ efficacy ([3]; agonist mode): 684 (36) %
CS(=O)(=O)c1cc(N2CCN(C[C@H]3CC[C@H](C(F)(F)F)CC3)[C@@H](c3ccccc3)C2)ccc1C(N)=O (single isomer, unassigned) [17-37]	0.605	53		85%	0.355	16011 (50) %	16	3.53		Ki (LXR β LBD protein [2]): 1.01 µM; Cell LXRβ efficacy ([3]; agonist mode): 24%; Ki (LXR α LBD protein [6]): 3.21 µM
CS(=O)(=O)c1cccc(N2CCN(CC3CCOCC3)[C@@H](c3ccccc3)C2)c1 [51-5, (S)-4-(3-(methylsulfonyl)phenyl)-2-phenyl-1-((tetrahydro-2H-pyran-4-yl)methyl)piperazine]			> 20				> 20		> 50	EC50 (LXR α LBD protein [1]; [9]): > 50 µM; Ki (LXR β LBD protein [2]; Biological Test Example 1): 1.02 µM; Ki (LXR α LBD protein [6]): > 3.33 µM
CS(=O)(=O)c1cccc(N2CCN(Cc3ccc(C(F)(F)F)cc3)[C@@H](c3ccccc3)C2)c1 (single isomer, unassigned) [46-15]	1.52	28	0.72			2993 (28) %			0.418	Ki (LXR β LBD protein [2]): 0.158 µM; Cell LXRβ efficacy [3]: 720 (26) %; FRET LXRβ efficacy (LXR β LBD protein [4]): 418 (45) %; EC50 [5, 10]: 2.99 µM
Cc1ccccc1[C@H]1CN(c2cccc(S(C)(=O)=O)c2)CCN1Cc1ccc(C(F)(F)F)nc1 (single isomer, unassigned) [46-46]	6.69	30	1.99	1214 (51) %					1.21	Ki (LXR β LBD protein [2]): 1.98 µM; Cell LXRβ efficacy ([3]; agonist mode): 1989 (4) %; Ki (LXR α LBD protein [6]): > 3.33 µM; EC50 [5, 10]: > 20 µM
CS(=O)(=O)c1cccc(N2CCN(Cc3ccc(OC(F)F)cc3)[C@@H](c3ccccc3)C2)c1 [46-11, (S)-1-(4-(difluoromethoxy)benzyl)-4-(3-(methylsulfonyl)phenyl)-2-phenylpiperazine]	17.3		> 20			3753 (7) %			0.6	FRET LXRα efficacy (LXR α LBD protein [1]): 17300 (33) %; Ki (LXR β LBD protein [2]): 0.445 µM; FRET LXRβ efficacy (LXR β LBD protein [4]): 600 (20) %; Ki (LXR α LBD protein [6]): 3.29 µM; EC50 [5]: 3.75 µM
CS(=O)(=O)c1cccc(N2CCN(C[C@H]3CC[C@@H](C(F)(F)F)CC3)[C@@H](c3ccc(F)cc3)C2)c1 [Cpd No 48-43, (S)-2-(4-fluorophenyl)-4-(3-(methylsulfonyl)phenyl)-1-(((1s,4R)-4-(trifluoromethyl)cyclohexyl)methyl)piperazine]	0.207	48	0.047			240 (54) %			0.027	Ki (LXR β LBD protein [2]): 0.015 µM; Cell LXRβ efficacy [3]: 47 (32) %; FRET LXRβ efficacy (LXR β LBD protein [4]): 27 (43) %; EC50 [5, 10]: 0.24 µM
Cc1ccc(CN2CCN(c3cccc(S(C)(=O)=O)c3)C[C@H]2c2ccccc2)cc1 (single isomer, unassigned) [46-5]	> 50		> 20				> 20		7.16	FRET LXRβ efficacy (LXR β LBD protein [4]): 7159 (57) %
CS(=O)(=O)c1cccc(N2CCN(Cc3ccc(OC(F)(F)F)cc3)[C@H](c3ccccc3)C2)c1 (single isomer, unassigned) [46-22]	4.62	42	2.1				> 20		1.27	Cell LXRβ efficacy [3]: 2095 (9) %; FRET LXRβ efficacy (LXR β LBD protein [4]): 1273 (73) %
CS(=O)(=O)c1cccc(N2CCN(Cc3ccc(OC(F)F)cc3)[C@H](c3ccccc3)C2)c1 [46-10, (R)-1-(4-(difluoromethoxy)benzyl)-4-(3-(methylsulfonyl)phenyl)-2-phenylpiperazine]	40.7		> 20						25	FRET LXRα efficacy (LXR α LBD protein [1]): 40680 (55) %; FRET LXRβ efficacy (LXR β LBD protein [4]): 24999 (94) %; EC50 [5]: > 20 µM
benzyl 4-(3-(methylsulfonyl)phenyl)-2-phenylpiperazine-1-carboxylate [1-14]	1.54	27		25%			> 20	> 20		
CS(=O)(=O)c1cccc(N2CCN(C[C@H]3CCN(CC(F)(F)F)C3)[C@H](c3ccccc3)C2)c1 (single isomer, unassigned) [48-60]			6.83			18622 (13) %				EC50 (LXR α LBD protein [1]; [9]): 16.1 µM; FRET LXRα efficacy (LXR α LBD protein [1]; [9]): 27%; Cell LXRβ efficacy [3, 11]: 6832 (7) %; EC50 (LXR β LBD protein [4]): 1.03 µM; FRET LXRβ efficacy (LXR β LBD protein [4]; [9]): 1032 (33) %; EC50 [5, 12]: 18.6 µM
tert-butyl 2-(2-bromophenyl)-4-(3-(methylsulfonyl)phenyl)piperazine-1-carboxylate [1-9]	> 50			32%	0.564		> 20	> 20		
tert-butyl 2-cyclohexyl-4-(3-(methylsulfonyl)phenyl)piperazine-1-carboxylate [1-11]	19.1	27		25%	0.34	16278 (16) %	16.3	15.7		Cell LXRβ efficacy ([3]; agonist mode): 2%
C[C@@]1(c2ccccc2)CN(c2cccc(S(C)(=O)=O)c2)CCN1Cc1ccc(C(F)(F)F)c(Cl)c1 (single isomer, unassigned) [46-35]	> 50		> 20						> 50	EC50 [5, 10]: > 20 µM
CC(C)[C@H]1CC[C@H](CN2CCN(c3cccc(S(C)(=O)=O)c3)C[C@H]2c2ccccc2)CC1 (single isomer, unassigned) [48-14]	> 50			67%	12.3		> 20	> 20		
CC(C)(O)c1ccc(CN2CCN(c3cccc(S(C)(=O)=O)c3)C[C@H]2c2ccccc2)cc1 [10-11, (R)-2-(4-((4-(3-(methylsulfonyl)phenyl)-2-phenylpiperazin-1-yl)methyl)phenyl)propan-2-ol]	> 50		> 20				> 20		> 50	
Cc1ccccc1[C@@H]1CN(c2cccc(S(C)(=O)=O)c2)CCN1Cc1ccc(C(F)(F)F)nc1 (single isomer, unassigned) [46-45]	6.57	43	7.52	1524 (74) %					1.52	Cell LXRβ efficacy ([3]; agonist mode): 7516 (44) %; EC50 [5, 10]: > 20 µM
NS(=O)(=O)c1cccc(N2CCN(C[C@H]3CC[C@H](C(F)(F)F)CC3)[C@@H](c3ccccc3)C2)c1 (single isomer, unassigned) [48-37]	2.35	33		30%	1.29	2829 (39) %	2.83	1.18		Cell LXRβ efficacy ([3]; agonist mode): 19%
CS(=O)(=O)c1cc(N2CCN(C[C@H]3CC[C@H](C(F)(F)F)CC3)[C@H](c3ccccc3)C2)ccc1C#N (single isomer, unassigned) [50-3]							> 20			EC50 (LXR α LBD protein [1]; [9]): 12.9 µM; FRET LXRα efficacy (LXR α LBD protein [1]; [9]): 71%; EC50 ([3]; Biological Test Example 2, agonist mode, read-out: Cell LXRβ EC50): > 20 µM; FRET LXRβ efficacy (LXR β LBD protein [4]; [9]): 52%; EC50 (LXR β LBD protein [4]; Biological Test Example 3, agonist mode, read-out: FRET LXRβ EC50): 1.66 µM
CS(=O)(=O)c1cccc(N2CCN(C[C@@H]3CCN(CC(F)(F)F)C3)[C@H](c3ccccc3)C2)c1 (single isomer, unassigned) [48-62]			4.68							EC50 (LXR α LBD protein [1]; [9]): 9.98 µM; FRET LXRα efficacy (LXR α LBD protein [1]; [9]): 39%; Cell LXRβ efficacy [3, 11]: 4682 (8) %; EC50 (LXR β LBD protein [4]): 2.1 µM; EC50 [5, 12]: > 20 µM
NS(=O)(=O)c1cccc(N2CCN(C[C@H]3CC[C@H](C(F)(F)F)CC3)[C@H](c3ccccc3)C2)c1 (single isomer, unassigned) [48-36]	> 50			25%	16.4		> 20	> 20		
tert-butyl 2-methyl-4-(3-(methylsulfonyl)phenyl)-2-phenylpiperazine-1-carboxylate [1-10]	3.53	28		31%	0.5		> 20	> 20		
